# Results: patent publication US6783949B1, “Processes for determining whether a test substance contains lipases or lipase inhibitors” (Aventis Pharma Deutschland GmbH, priority 1999, dated 2004)
# Molecular target: T1, HSL (Rattus norvegicus, UniProt P15304)
# T1 construct: The partially purified HSL can be stored at −70° C. for 4 to 6 weeks; from tissue; host or cells: rat epididymal fat cells (male Wistar rats)
# T1 sequence (P15304 1-768 isoform P15304-2): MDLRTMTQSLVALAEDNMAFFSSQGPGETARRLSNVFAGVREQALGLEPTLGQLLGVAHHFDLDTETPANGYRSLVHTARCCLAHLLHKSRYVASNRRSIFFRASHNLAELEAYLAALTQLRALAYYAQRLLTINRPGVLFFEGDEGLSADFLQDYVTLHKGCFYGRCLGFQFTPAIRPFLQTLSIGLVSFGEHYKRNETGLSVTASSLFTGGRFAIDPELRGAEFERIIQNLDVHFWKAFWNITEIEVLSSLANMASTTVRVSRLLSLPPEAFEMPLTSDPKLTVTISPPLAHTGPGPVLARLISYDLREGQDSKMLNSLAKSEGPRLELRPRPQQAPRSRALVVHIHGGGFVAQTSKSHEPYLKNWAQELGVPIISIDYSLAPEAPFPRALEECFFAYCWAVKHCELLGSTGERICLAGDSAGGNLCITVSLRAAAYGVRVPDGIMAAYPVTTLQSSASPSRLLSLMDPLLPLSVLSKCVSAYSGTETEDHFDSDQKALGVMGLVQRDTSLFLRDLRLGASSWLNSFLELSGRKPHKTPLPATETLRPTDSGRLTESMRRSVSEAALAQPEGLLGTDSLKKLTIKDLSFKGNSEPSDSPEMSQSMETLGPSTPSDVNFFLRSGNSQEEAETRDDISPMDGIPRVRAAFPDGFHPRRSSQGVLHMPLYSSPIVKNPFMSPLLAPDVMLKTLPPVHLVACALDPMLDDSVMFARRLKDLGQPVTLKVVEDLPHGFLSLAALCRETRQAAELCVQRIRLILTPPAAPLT
# Assay: Indirect NAG assay (extinction increase at 481 nm)
# Type: biochemical
# Settings: for Absorption change, Decrease, 550 nm / Absorption change, Increase, 481 nm / Increase in the absorption at 481 nm: NAG 0.05 mg/ml
# Description: A typical reaction is carried out at 30° C. for 60 min, for example in 1.5 ml Eppendorf vessels or 96-hole plates. […] 180 μl of the substrate solution (20 μg/ml of phosphatidylcholine, 10 μg/ml of phosphatidylinositol, 50 μg/ml of NAG in assay buffer) are added. After a preincubation for 15 min at 30° C., 20 μl of HSL in assay buffer are pipetted in and the extinction is immediately measured (see above) at 481 nm in a cuvette photometer (0.5 ml cuvette) or microtiter plate reader. After a certain incubation time, which is variable and depends on the chosen enzyme concentration and can be between 2 and 240 minutes, in this case incubation at 30° C. for 60 min, the extinction is measured again. The increase in the extinction in the yellow region, in this case at 481 nm, is a measure of the enzyme activity.
# Isolated rat fat cells are obtained from epididymal fatty tissue from untreated male rats (Wistar, 220-250 g) by collagenase treatment according to published processes. The fat cells from 10 rats are washed three times by flotation with 50 ml each of homogenization buffer ([…], pH 7.4, 0.25 M sucrose, 1 mM ethylenediamine-N,N,N′,N′-tetraacetic acid (EDTA), 1 mM dithiothreitol (DTT), 10 μg/ml of leupeptin, 10 μg/ml of antipain, 20 μg/ml of pepstatin) and finally taken up in 10 ml of homogenization buffer. The fat cells are homogenized in a Teflon-in-glass homogenizer (Braun-Melsungen) by 10 strokes at 1500 rpm and 15° C. The homogenizate is centrifuged (Sorvall SM24 tubes, 5000 rpm, 10 min, 4° C.). The […] between the overlying fatty layer and the pellet is removed and the centrifugation is repeated. The […] resulting from this is centrifuged again (Sorvall SM24 tubes, 20,000 rpm, 45 min, 4° C.). […] After incubation for 60 min at 4° C. (shake at intervals of 15 min), the batch is centrifuged (Sorvall SM24 tubes, 3000 rpm, 10 min, 4° C.). The supernatant is brought to pH 5.2 by addition of glacial acetic acid and incubated at 4° C. for 30 min. […] The suspension is dialyzed overnight at 4° C. against 25 mM TRIS/HCl, pH 7.4, 50% glycerol, 1 mM DTT, and 10 μg/ml of leupeptin, pepstatin, and antipain and then applied to a hydroxylapatite column (0.1 g per 1 ml of suspension, equilibrated with 10 mM potassium phosphate, pH 7.0, 30% glycerol, 1 mM DTT). The column is washed with four volumes of equilibration buffer at a flow rate of 20 to 30 ml/h. The HSL is eluted with a volume of equilibration buffer which contains 0.5 M potassium phosphate, then dialyzed (see above) and concentrated 5 to 10 times by ultrafiltration (Amicon Diaflo PM 10 filter) at 4° C. The partially purified HSL can be stored at −70° C. for 4 to 6 weeks.
# 6 mg of phosphatidylcholine and 6 mg of phosphatidylinositol are dissolved in 1 ml of chloroform each. 10 mg of NAG are dissolved in 1 ml of chloroform. […] The chloroform (225 μl total volume) is completely removed by overblowing with a stream of N2. The dried substrate can be stored at 4° C. for up to three days. For the preparation of the phospholipid vesicles/micelles having intercalated NAG (on the test day), the dried substrate is taken up in 20 ml of assay buffer (25 mM TRIS/HCl, pH 7.4; 150 mM NaCl) and two ultrasonic treatments with an ultrasonic probe (Branson Sonifier type 11, standard microtip): 1st treatment setting 2, 2×1 min, in between in each case 1 min on ice; 2nd treatment setting 4, 2×1 min, in between in each case 1 min on ice. […] Before use as a substrate (within the next 2 h), the solution is additionally incubated on ice for 15 min.
# The assay is carried out at 30° C. for 60 min in 1.5 ml Eppendorf vessels or 96-hole plates.
smiles,measurement,setting,value
O=C(CCCCCCCCCCCNc1ccc([N+](=O)[O-])c2nonc12)OCC(O)CO (stereo not drawn) [Compound (3)],Signal strength,"20 μg of protein, 0.05 mg/ml of NAG",0.6 to 0.7 OD
same,"Absorption change, Decrease, 550 nm","HSL 1 μg, 60 min",866 ± 94 arb. units
same,"Absorption change, Increase, 481 nm","HSL 1 μg, 60 min",156 ± 21 arb. units
same,"Absorption change, Decrease, 550 nm","HSL 2 μg, 60 min",841 ± 78 arb. units
same,"Absorption change, Increase, 481 nm","HSL 2 μg, 60 min",347 ± 40 arb. units
same,Increase in the absorption at 481 nm,"HSL 5 μg, 1 min",12 ± 2 arb. units
same,Increase in the absorption at 481 nm,"HSL 5 μg, 2 min",23 ± 4 arb. units
same,Increase in the absorption at 481 nm,"HSL 5 μg, 5 min",45 ± 9 arb. units
same,Increase in the absorption at 481 nm,"HSL 5 μg, 10 min",105 ± 18 arb. units
same,Increase in the absorption at 481 nm,"HSL 5 μg, 15 min",155 ± 20 arb. units
same,Increase in the absorption at 481 nm,"HSL 5 μg, 20 min",219 ± 31 arb. units
same,Increase in the absorption at 481 nm,"HSL 5 μg, 30 min",295 ± 47 arb. units
same,Increase in the absorption at 481 nm,"HSL 5 μg, 45 min",453 ± 52 arb. units
same,"Absorption change, Decrease, 550 nm","HSL 5 μg, 60 min",779 ± 82 arb. units
same,"Absorption change, Increase, 481 nm","HSL 5 μg, 60 min",791 ± 88 arb. units
same,Increase in the absorption at 481 nm,"HSL 5 μg, 60 min",677 ± 70 arb. units
same,Increase in the absorption at 481 nm,"HSL 5 μg, 75 min",831 ± 92 arb. units
same,Increase in the absorption at 481 nm,"HSL 5 μg, 90 min",995 ± 82 arb. units
same,Increase in the absorption at 481 nm,"HSL 5 μg, 120 min",1455 ± 102 arb. units
same,Increase in the absorption at 481 nm,"HSL 5 μg, 180 min",1937 ± 121 arb. units
same,"Absorption change, Decrease, 550 nm","HSL 7.5 μg, 60 min",759 ± 69 arb. units
same,"Absorption change, Increase, 481 nm","HSL 7.5 μg, 60 min",1066 ± 120 arb. units
same,Increase in the absorption at 481 nm,"HSL 10 μg, 1 min",19 ± 4 arb. units
same,Increase in the absorption at 481 nm,"HSL 10 μg, 2 min",51 ± 9 arb. units
same,Increase in the absorption at 481 nm,"HSL 10 μg, 5 min",102 ± 19 arb. units
same,Increase in the absorption at 481 nm,"HSL 10 μg, 10 min",185 ± 26 arb. units
same,Increase in the absorption at 481 nm,"HSL 10 μg, 15 min",288 ± 39 arb. units
same,Increase in the absorption at 481 nm,"HSL 10 μg, 20 min",395 ± 36 arb. units
same,Increase in the absorption at 481 nm,"HSL 10 μg, 30 min",517 ± 67 arb. units
same,Increase in the absorption at 481 nm,"HSL 10 μg, 45 min",830 ± 57 arb. units
same,"Absorption change, Decrease, 550 nm","HSL 10 μg, 60 min",650 ± 61 arb. units
same,"Absorption change, Increase, 481 nm","HSL 10 μg, 60 min",1255 ± 141 arb. units
same,Increase in the absorption at 481 nm,"HSL 10 μg, 60 min",1179 ± 110 arb. units
same,Increase in the absorption at 481 nm,"HSL 10 μg, 75 min",1487 ± 104 arb. units
same,Increase in the absorption at 481 nm,"HSL 10 μg, 90 min",1844 ± 130 arb. units
same,Increase in the absorption at 481 nm,"HSL 10 μg, 120 min",2745 ± 195 arb. units
same,Increase in the absorption at 481 nm,"HSL 10 μg, 180 min",3521 ± 254 arb. units
same,"Absorption change, Decrease, 550 nm","HSL 15 μg, 60 min",540 ± 55 arb. units
same,"Absorption change, Increase, 481 nm","HSL 15 μg, 60 min",2351 ± 205 arb. units
same,Increase in the absorption at 481 nm,"HSL 20 μg, 1 min",5 ± 7 arb. units
same,Increase in the absorption at 481 nm,"HSL 20 μg, 2 min",78 ± 12 arb. units
same,Increase in the absorption at 481 nm,"HSL 20 μg, 5 min",193 ± 36 arb. units
same,Increase in the absorption at 481 nm,"HSL 20 μg, 10 min",423 ± 62 arb. units
same,Increase in the absorption at 481 nm,"HSL 20 μg, 15 min",617 ± 70 arb. units
same,Increase in the absorption at 481 nm,"HSL 20 μg, 20 min",865 ± 93 arb. units
same,Increase in the absorption at 481 nm,"HSL 20 μg, 30 min",1143 ± 216 arb. units
same,Increase in the absorption at 481 nm,"HSL 20 μg, 45 min",1877 ± 206 arb. units
same,"Absorption change, Decrease, 550 nm","HSL 20 μg, 60 min",287 ± 51 arb. units
same,"Absorption change, Increase, 481 nm","HSL 20 μg, 60 min",2867 ± 199 arb. units
same,Increase in the absorption at 481 nm,"HSL 20 μg, 60 min",2510 ± 295 arb. units
same,Increase in the absorption at 481 nm,"HSL 20 μg, 75 min",3067 ± 310 arb. units
same,Increase in the absorption at 481 nm,"HSL 20 μg, 90 min",3527 ± 188 arb. units
same,Increase in the absorption at 481 nm,"HSL 20 μg, 120 min",4941 ± 410 arb. units
same,Increase in the absorption at 481 nm,"HSL 20 μg, 180 min",5712 ± 399 arb. units
same,"Absorption change, Decrease, 550 nm","HSL 25 μg, 60 min",198 ± 44 arb. units
same,"Absorption change, Increase, 481 nm","HSL 25 μg, 60 min",3428 ± 270 arb. units
same,"Absorption change, Decrease, 550 nm","HSL 30 μg, 60 min",115 ± 35 arb. units
same,"Absorption change, Increase, 481 nm","HSL 30 μg, 60 min",3973 ± 244 arb. units
same,Increase in the absorption at 481 nm,"HSL 40 μg, 1 min",91 ± 14 arb. units
same,Increase in the absorption at 481 nm,"HSL 40 μg, 2 min",89 ± 32 arb. units
same,Increase in the absorption at 481 nm,"HSL 40 μg, 5 min",395 ± 62 arb. units
same,Increase in the absorption at 481 nm,"HSL 40 μg, 10 min",784 ± 88 arb. units
same,Increase in the absorption at 481 nm,"HSL 40 μg, 15 min",1060 ± 144 arb. units
